From the NIST ThermoML archive (doi:10.1021/je049671t)
Numbers after ± are expanded uncertainties.

Experiment: xn = mol fraction of the nth substance listed
Settings: Liquid, Vibrating tube method

CC(C)C [2-methylpropane] + CCC
Settings | mass density [kg/m3]
300 K, 4958.9 kPa, x2 = 0.499 | 533.34 ± 0.34
300 K, 4994.5 kPa, x2 = 0.75 | 518.46 ± 0.35
300 K, 5016.4 kPa, x2 = 0.25 | 547.38 ± 0.34
300 K, 5458.6 kPa, x2 = 0.499 | 534.46 ± 0.35
300 K, 5458.9 kPa, x2 = 0.75 | 519.57 ± 0.35
300 K, 5511.8 kPa, x2 = 0.25 | 548.38 ± 0.34
300 K, 5960.9 kPa, x2 = 0.75 | 520.74 ± 0.36
300 K, 5975.7 kPa, x2 = 0.499 | 535.56 ± 0.35
300 K, 6025.1 kPa, x2 = 0.25 | 549.47 ± 0.35
300 K, 6473 kPa, x2 = 0.75 | 521.92 ± 0.37
300 K, 6516 kPa, x2 = 0.25 | 550.41 ± 0.35
300 K, 6517.3 kPa, x2 = 0.499 | 536.72 ± 0.36
300 K, 6954.6 kPa, x2 = 0.75 | 522.99 ± 0.37
300 K, 6957 kPa, x2 = 0.25 | 551.23 ± 0.36
300 K, 6984.7 kPa, x2 = 0.499 | 537.69 ± 0.37
320 K, 1020.5 kPa, x2 = 0.25 | 509.69 ± 0.3
320 K, 1325.3 kPa, x2 = 0.75 | 475.52 ± 0.3
320 K, 1461.2 kPa, x2 = 0.499 | 494.61 ± 0.31
320 K, 1500 kPa, x2 = 0.25 | 511.28 ± 0.3
320 K, 1505.3 kPa, x2 = 0.75 | 476.31 ± 0.3
320 K, 2021.1 kPa, x2 = 0.75 | 478.51 ± 0.31
320 K, 2023.3 kPa, x2 = 0.25 | 512.94 ± 0.31
320 K, 2041.5 kPa, x2 = 0.499 | 496.75 ± 0.31
320 K, 2488.7 kPa, x2 = 0.499 | 498.31 ± 0.32
320 K, 2517.7 kPa, x2 = 0.75 | 480.54 ± 0.31
320 K, 2522.2 kPa, x2 = 0.25 | 514.49 ± 0.32
320 K, 3007.6 kPa, x2 = 0.25 | 515.95 ± 0.32
320 K, 3023.9 kPa, x2 = 0.499 | 500.12 ± 0.33
320 K, 3025.6 kPa, x2 = 0.75 | 482.53 ± 0.32
320 K, 3506.4 kPa, x2 = 0.75 | 484.35 ± 0.33
320 K, 3508.1 kPa, x2 = 0.25 | 517.4 ± 0.33
320 K, 3550 kPa, x2 = 0.499 | 501.84 ± 0.34
320 K, 3994.2 kPa, x2 = 0.75 | 486.12 ± 0.34
320 K, 4022.9 kPa, x2 = 0.25 | 518.87 ± 0.33
320 K, 4037.4 kPa, x2 = 0.499 | 503.38 ± 0.34
320 K, 4507.7 kPa, x2 = 0.75 | 487.92 ± 0.34
320 K, 4522.1 kPa, x2 = 0.25 | 520.26 ± 0.34
320 K, 4530.4 kPa, x2 = 0.499 | 504.9 ± 0.35
320 K, 4954.2 kPa, x2 = 0.499 | 506.17 ± 0.35
320 K, 4968 kPa, x2 = 0.75 | 489.5 ± 0.35
320 K, 4990.1 kPa, x2 = 0.25 | 521.53 ± 0.35
320 K, 5517.3 kPa, x2 = 0.25 | 522.93 ± 0.35
320 K, 5527.2 kPa, x2 = 0.75 | 491.33 ± 0.36
320 K, 5545.8 kPa, x2 = 0.499 | 507.9 ± 0.36
320 K, 5997.3 kPa, x2 = 0.499 | 509.24 ± 0.37
320 K, 6001.8 kPa, x2 = 0.25 | 524.19 ± 0.36
320 K, 6003.6 kPa, x2 = 0.75 | 492.85 ± 0.37
320 K, 6479.8 kPa, x2 = 0.25 | 525.39 ± 0.37
320 K, 6495 kPa, x2 = 0.75 | 494.38 ± 0.38
320 K, 6524.9 kPa, x2 = 0.499 | 510.74 ± 0.37
320 K, 6930.3 kPa, x2 = 0.499 | 511.85 ± 0.38
320 K, 6964.1 kPa, x2 = 0.25 | 526.6 ± 0.37
320 K, 7044.7 kPa, x2 = 0.75 | 496.03 ± 0.38
340 K, 1514.2 kPa, x2 = 0.25 | 479.11 ± 0.3
340 K, 2002.6 kPa, x2 = 0.499 | 459.37 ± 0.3
340 K, 2028 kPa, x2 = 0.25 | 481.6 ± 0.31
340 K, 2456 kPa, x2 = 0.499 | 461.99 ± 0.31
340 K, 2489.8 kPa, x2 = 0.75 | 441.74 ± 0.3
340 K, 2523.8 kPa, x2 = 0.25 | 483.92 ± 0.32
340 K, 2981.6 kPa, x2 = 0.499 | 464.85 ± 0.32
340 K, 3027.2 kPa, x2 = 0.25 | 486.13 ± 0.32
340 K, 3027.4 kPa, x2 = 0.75 | 445.39 ± 0.31
340 K, 3485.7 kPa, x2 = 0.499 | 467.47 ± 0.32
340 K, 3510.1 kPa, x2 = 0.75 | 448.46 ± 0.32
340 K, 3532.9 kPa, x2 = 0.25 | 488.26 ± 0.33
340 K, 3969 kPa, x2 = 0.75 | 451.17 ± 0.32
340 K, 4012.5 kPa, x2 = 0.499 | 470.04 ± 0.33
340 K, 4015.7 kPa, x2 = 0.25 | 490.21 ± 0.34
340 K, 4498.6 kPa, x2 = 0.75 | 454.09 ± 0.33
340 K, 4503 kPa, x2 = 0.25 | 492.08 ± 0.35
340 K, 4508.4 kPa, x2 = 0.499 | 472.34 ± 0.34
340 K, 4963.1 kPa, x2 = 0.75 | 456.51 ± 0.34
340 K, 4964.9 kPa, x2 = 0.25 | 493.81 ± 0.35
340 K, 4990.6 kPa, x2 = 0.499 | 474.5 ± 0.35
340 K, 5450.5 kPa, x2 = 0.499 | 476.5 ± 0.35
340 K, 5511.1 kPa, x2 = 0.75 | 459.22 ± 0.35
340 K, 5522.3 kPa, x2 = 0.25 | 495.84 ± 0.36
340 K, 5960.4 kPa, x2 = 0.75 | 461.33 ± 0.35
340 K, 5982 kPa, x2 = 0.499 | 478.68 ± 0.36
340 K, 6022.3 kPa, x2 = 0.25 | 497.59 ± 0.37
340 K, 6506.1 kPa, x2 = 0.75 | 463.79 ± 0.36
340 K, 6513 kPa, x2 = 0.499 | 480.75 ± 0.37
340 K, 6527.5 kPa, x2 = 0.25 | 499.31 ± 0.38
340 K, 6963 kPa, x2 = 0.25 | 500.75 ± 0.38
340 K, 7045.5 kPa, x2 = 0.499 | 482.76 ± 0.38
340 K, 7081.1 kPa, x2 = 0.75 | 466.25 ± 0.37
360 K, 2023.3 kPa, x2 = 0.25 | 441.34 ± 0.3
360 K, 2495.4 kPa, x2 = 0.499 | 418.03 ± 0.3
360 K, 2532.9 kPa, x2 = 0.25 | 445.56 ± 0.3
360 K, 2996.3 kPa, x2 = 0.499 | 423.54 ± 0.31
360 K, 3022.3 kPa, x2 = 0.25 | 449.26 ± 0.31
360 K, 3496.3 kPa, x2 = 0.499 | 428.34 ± 0.31
360 K, 3518.2 kPa, x2 = 0.75 | 399.53 ± 0.3
360 K, 3519.8 kPa, x2 = 0.25 | 452.71 ± 0.32
360 K, 3960 kPa, x2 = 0.75 | 405.21 ± 0.31
360 K, 3971.4 kPa, x2 = 0.75 | 405.35 ± 0.31
360 K, 3988.8 kPa, x2 = 0.499 | 432.58 ± 0.32
360 K, 4022.3 kPa, x2 = 0.25 | 455.95 ± 0.32
360 K, 4484.8 kPa, x2 = 0.75 | 411.08 ± 0.31
360 K, 4488.6 kPa, x2 = 0.499 | 436.48 ± 0.33
360 K, 4520.2 kPa, x2 = 0.25 | 458.95 ± 0.33
360 K, 4923.7 kPa, x2 = 0.75 | 415.42 ± 0.32
360 K, 4983.9 kPa, x2 = 0.25 | 461.58 ± 0.34
360 K, 5000.3 kPa, x2 = 0.499 | 440.17 ± 0.33
360 K, 5436.6 kPa, x2 = 0.499 | 443.06 ± 0.34
360 K, 5456.3 kPa, x2 = 0.75 | 420.47 ± 0.33
360 K, 5515.2 kPa, x2 = 0.25 | 464.45 ± 0.35
360 K, 5932 kPa, x2 = 0.75 | 424.33 ± 0.34
360 K, 5982.9 kPa, x2 = 0.25 | 466.86 ± 0.36
360 K, 5992.3 kPa, x2 = 0.499 | 446.54 ± 0.35
360 K, 6444.6 kPa, x2 = 0.25 | 469.09 ± 0.36
360 K, 6487.4 kPa, x2 = 0.499 | 449.41 ± 0.36
360 K, 6509.8 kPa, x2 = 0.75 | 428.41 ± 0.34
360 K, 6932.1 kPa, x2 = 0.75 | 431.05 ± 0.35
360 K, 6956.4 kPa, x2 = 0.25 | 471.48 ± 0.37
360 K, 6977 kPa, x2 = 0.499 | 452.14 ± 0.36
380 K, 2977.2 kPa, x2 = 0.25 | 394.6 ± 0.29
380 K, 3495.5 kPa, x2 = 0.25 | 403.43 ± 0.3
380 K, 3540.7 kPa, x2 = 0.499 | 358.66 ± 0.3
380 K, 3969.5 kPa, x2 = 0.25 | 409.99 ± 0.31
380 K, 4047.9 kPa, x2 = 0.499 | 373.76 ± 0.31
380 K, 4453.9 kPa, x2 = 0.25 | 415.7 ± 0.32
380 K, 4501.9 kPa, x2 = 0.499 | 383.09 ± 0.31
380 K, 5016 kPa, x2 = 0.499 | 391.43 ± 0.32
380 K, 5019.6 kPa, x2 = 0.25 | 421.52 ± 0.32
380 K, 5488.5 kPa, x2 = 0.25 | 425.84 ± 0.33
380 K, 5506.7 kPa, x2 = 0.499 | 398.06 ± 0.32
380 K, 5943.1 kPa, x2 = 0.499 | 403.16 ± 0.33
380 K, 5972.1 kPa, x2 = 0.25 | 429.89 ± 0.34
380 K, 6422.5 kPa, x2 = 0.499 | 408.17 ± 0.34
380 K, 6471.8 kPa, x2 = 0.25 | 433.74 ± 0.35
380 K, 6885.8 kPa, x2 = 0.499 | 412.58 ± 0.34
380 K, 7060.8 kPa, x2 = 0.25 | 437.93 ± 0.36

mass density [kg/m3]
Settings | 300 K | 320 K | 340 K | 360 K | 380 K
x2 = 0.25 | 537.31 ± 0.28 | 509.12 ± 0.28 | 478.17 ± 0.28 | 440.78 ± 0.27 | 390.71 ± 0.27
x2 = 0.499 | 522.96 ± 0.28 | 491.75 ± 0.29 | 457.03 ± 0.28 | 416.83 ± 0.27 | 346.9 ± 0.27
x2 = 0.75 | 507.33 ± 0.29 | 475.51 ± 0.28 | 436.07 ± 0.27 | 388.35 ± 0.26 | –
